# Source: patent US11197911B2, “Peptidylic inhibitors targeting C9ORF72 hexanucleotide repeat-mediated neurodegeneration” (The Chinese University of Hong Kong, priority 2016, dated 2021)
# Entries after “also recorded” stand apart in the source; their conditions may differ. No end group written: not given here.
# What was measured:
# NCL = test: Immunostaining, nucleolar stress marker NCL localization; assay type: cell-based; conditions: (GGGGCC)66-expressing SK-N-MC cells; 10 μM; 48 h
# Experimental: (§1) SK-N-MC cells were seeded and grown on glass coverslips at a density of 0.8×10^5 in 24-well plate. Forty eight hours after treatment, cells were fixed with 4% paraformaldehyde followed by three times wash with 1×PBS. Cells were then permeabilized in 0.5% Triton X-100 for 10 min at room temperature followed by three washes with 1×PBS. After washing step, cells were blocked with 5% BSA in 1×PBS for 1 h at room temperature. The NCL (1:500, Abcam) or B23 (1:500, Abcam) antibody was then applied with 5% BSA (1:500) 2 h at room temperature. Once the primary antibody was removed, Cells were washed three times with 1×PBS and incubated with an anti-rabbit Cy3 or an anti-mouse Cy3 secondary antibody (1:400, Jackson Labs) 1 h at room temperature. After washing with 1×PBS, nuclei were counterstained with Hoechst 33342 (1 μg/ml, Thermo Fisher Scientific) prior to mounting coverslips. Images were obtained on an OLYMPUS FV1000 IX81-TIRF confocal microscope. A single focal plan was obtained through the centre of the nucleus. The method of quantification of NCL and B23 nuclear area fold change was described previously^7. In order to quantify both dispersed NCL and dense nucleolar NCL, a threshold setting in ImageJ ranging from 25-100 was used to measure the pixel area of NCL relative to the area of the nucleus outlined by the Hoechst staining. […]
# nucleophosmin (B23) = test: Immunostaining, nucleolar stress marker B23 localization; assay type: cell-based; conditions: (GGGGCC)66-expressing SK-N-MC cells; 10 μM; 48 h
# Experimental: as §1
# UAS-(GGGGCC)36 flies [1] = test: External eye assay; assay type: in vivo, Drosophila; conditions: GMR-Gal4/UAS-(GGGGCC)36 flies; 100 μM feeding; 1 day-old adults
# Experimental: (§2) Flies were raised at 25° C. on cornmeal medium supplemented with dry yeast. For […], third instar larvae were feed with 100 μM of TAT-P3L or TAT-P3LS1 dissolved in 2% sucrose solution for 2 h and then continued to culture in standard fly food. Eye images of 1 day-old adult of UAS-(GGGGCC)3 or UAS-(GGGGCC)36 flies were captured using a SPOT Insight CCD camera (Diagnostic instruments Inc.) on an Olympus SZX-12 stereomicroscope.
# UAS-(GGGGCC)36 flies [2] = test: Climbing ability assay; assay type: in vivo, Drosophila; conditions: elavGS flies, RU486 200 μM plus peptide 50 μM in food, 10, 15, 20 and 25 dpe
# Experimental: Fly climbing ability was analyzed by negative geotaxis.
# UAS-(GGGGCC)36 flies [3] = test: Lifespan assay; assay type: in vivo, Drosophila; conditions: elavGS flies, RU486 200 μM plus peptide 50 μM in food
# UAS-(GGGGCC)3 flies [4] = conditions: 50 μM in food
# Experimental: For lifespan and climbing ability assay, flies of 2dpe were feed with food containing different drug combination including vehicle control (ethanol), Mifepristone (RU486, 200 μM), RU486 (200 μM) plus TAT-P3L (50 μM), and RU486 (200 μM) plus TAT-P3LS1 (50 μM). Mifepristone (RU486, 200 μM) was used to induce transgene expression. For climbing ability assay, 10-15 flies were allocated to each experimental vials (total of 90-100 flies per condition) and monitored every 5 days. Fly climbing ability was analyzed by negative geotaxis. Groups of ∞15 flies were anesthetized and placed in a vertical plastic column. After 1 h recovery, flies were banged to the bottom, and then scored for climbing ability as the percentage of flies remaining at the bottom (<2 cm) at 25 s. Three trials were performed at 3 min intervals in each experiment.
# [5] = test system: expanded CAG repeat-mediated nucleolar stress; conditions: polyQ disease; inventors' previous work (ref. 20); cited from earlier work
# [6] = test system: (GGGGCC)66-expressing SK-N-MC cells; test: LDH cytotoxicity assay, (GGGGCC)66-induced cell death; assay type: cell-based; conditions: for suppression of (GGGGCC)66-induced cell death compared with P3L (structure-activity relationship study): 10 μM, single alanine substitution mutants; for effect on (GGGGCC)66-induced cell death (LDH enzyme activity in medium): 0.1, 1, 10 and 20 μM peptide
# Experimental: SK-N-MC cells were kindly provided by Prof. Dobrila D. Rudnicki (Johns Hopkins University, USA). […] Leonard Petrucelli (Mayo Clinic, USA).
# For IC50 detection, various amount of TAT-P3L, 0.1, 0.5, 1, 10, 50, 100, 500, 1,000 and 10,000 nM were added to individual culture wells after transfection. Forty eight hours after treatment, LDH enzyme activity in the cell culture medium was measured as described before. Experimental groups were normalized to the untransfected control. After normalization, data were analyzed using the dose response-inhibition curve (nonlinear regression-variable slope) to determine the IC50 value (Prism6 software, GraphPad Software, Inc.).
# [7] = test system: GGGGCC RNA foci in (GGGGCC)66-expressing SK-N-MC cells; test: RNA fluorescence in situ hybridization, GGGGCC RNA foci formation; assay type: cell-based; conditions: 10 μM, 48 h
# Experimental: In situ hybridization was carried out to evaluate the effect of TAT-P3L on GGGGCC RNA foci formation in […]-expressing SK-N-MC cells. In brief, 0.8×10^5 SK-N-MC cells were seeded and grown on glass coverslips in 24-well plate. Ten micromolar of TAT-P3L or TAT-P3LS1 were added immediately after transfection of 1 μg of pAg3-(GGGGCC)2/66 plasmid. After 48 h, cells were fixed with 4% paraformaldehyde for 10 min and permeabilized with 0.5% Triton-X 100 for 5 min at room temperature. Cells were then washed with phosphate buffered saline treated with diethylpyrocarbonate (DEP-CPBS) three times, and hybridized with 40 nM denatured TYE563-labeled LNA probe (5′-TYE563-CCCGGCCCCGGCCCC-3′; SEQ ID NO:13; Exiqon, Inc) in hybridization buffer (50% formamide, 10% dextran sulfate, 2× saline-sodium citrate buffer (SSC), 50 mM sodium phosphate buffer) 6 h at 65° C. After washing once with 0.1% Tween-20/2×SSC for 5 min at room temperature, cell were further washed with 0.1×SSC 3 times at 65° C. for 10 min. Nuclei were counterstained with Hoechst 33342 (1 μg/ml, Thermo Fisher Scientific) prior to mounting coverslips. Images were obtained on an OLYMPUS FV1000 IX81-TIRF confocal microscope.
# UAS-(GGGGCC)3 flies [8] = test: External eye assay, control flies; assay type: in vivo, Drosophila; conditions: GMR-Gal4/UAS-(GGGGCC)3 flies; 100 μM feeding
# Experimental: as §2
# UAS-(GGGGCC)3 flies [9] = test: Lifespan assay, control flies; assay type: in vivo, Drosophila; conditions: 50 μM in food
substance,measurement,setting,value
AEIRLVSKDGKSKGIAYIEFK [P3L],subcellular localization of NCL,NCL,restored the subcellular localization
same,subcellular localization of B23,nucleophosmin (B23),restored the subcellular localization
same,eye degeneration (scar formation in eye),UAS-(GGGGCC)36 flies [1],significantly suppressed neurodegeneration
same,climbing defect,UAS-(GGGGCC)36 flies [2],rescued locomotor deficit
same,lifespan (in words),UAS-(GGGGCC)36 flies [3],extended lifespan
same,climbing ability of control flies,UAS-(GGGGCC)3 flies [4],not found to be affecting the climbing ability
"P3: peptide DGKSKGIAYIEFK (SEQ ID NO:2), derived from RRM2 of NCL, inventors' previous work (synthetic peptide construct P3)",inhibition of expanded CAG repeat-mediated nucleolar stress and neurodegeneration,[5],specifically inhibited expanded CAG repeat-mediated nucleolar stress
TAT-P3LMT1: TAT-P3L mutant carrying a single alanine substitution; mutant part SEQ ID NO:14 (YGRKKRRQRRRAAIRLVSKDGKSKGIAYIEFK; synthetic peptide construct TAT; synthetic peptide mutant PL3MT1),suppression of (GGGGCC)66-induced cell death compared with P3L (structure-activity relationship study),[6]; 48 h,same suppression effect as the P3L peptide
TAT-P3LMT19: TAT-P3L mutant carrying a single alanine substitution; mutant part SEQ ID NO:32 (YGRKKRRQRRRAEIRLVSKDGKSKGIAYIEFA; synthetic peptide construct TAT; synthetic peptide mutant PL3MT19),suppression of (GGGGCC)66-induced cell death compared with P3L (structure-activity relationship study),[6]; 48 h,same suppression effect as the P3L peptide
"TAT-RRM1-P1: TAT fusion peptide YGRKKRRQRRRTGTNRKFGYVD (SEQ ID NO: 7), derived from RRM1 of NCL (synthetic peptide construct TAT-RRM1-P1)",effect on (GGGGCC)66-induced cell death (LDH enzyme activity in medium),[6]; 48 h,did not demonstrate any modifying effect; also recorded: didn't alter
"TAT-RRM4-P1: TAT fusion peptide YGRKKRRQRRRRARIVTDRETGSSKGFGFVD (SEQ ID NO: 10), derived from RRM4 of NCL (synthetic peptide construct TAT-RRM4-P1)",effect on (GGGGCC)66-induced cell death (LDH enzyme activity in medium),[6]; 48 h,did not demonstrate any modifying effect; also recorded: did not alter
YGRKKRRQRRRAEIRLVSKDGKSKGIAYIEFK [TAT-P3L],IC50,"[6]; 48 h, concentration reducing LDH enzyme activity by 50% vs untreated control, read-out: IC50 in suppressing (GGGGCC)66-induced cell death",104 ± 24.6 nM
same,RNA foci-like structure formation in control group,[7],no RNA foci-like structure formed
same,eye defect in control flies,UAS-(GGGGCC)3 flies [8],did not cause any observable eye defect
same,lifespan of control flies,UAS-(GGGGCC)3 flies [9],did not alter the lifespan
"YGRKKRRQRRRGGEDIKSRVEAASILYFIKKK [TAT-P3LS1, reference compound]",RNA foci-like structure formation in control group,[7],no RNA foci-like structure formed
YGRKKRRQRRRTFIKVPQNQNGKSKGYAF [TAT-RRM3-P1],cytotoxicity elicited by the peptide by itself (LDH),[6]; when the dose was raised,elicited cytotoxicity
